Data set [1] deals with HUVECs. The experiment in a line: Cell viability assay (CellTiter-Blue) in confluent HUVECs. Type of data set: cell-based, human. Conditions: 30 µM, 16 h. On the procedure:
Figure 2 Cdk5 is expressed in HUVECs and HMEC-1 cells, and the compounds are not cytotoxic to endothelial cells at concentrations used in functional assays. A: Cdk5 protein expression in endothelial cells in comparison to human cortex. Cdk5 protein amount was analyzed by Western blot in samples of human cortex (HC), confluent HUVECs (HU) and HMEC-1 (HM). β-actin served as a loading control and for normalization of protein amount. Relative quantification (left panel) and one representative image (right panel) of three individual blots are shown. Note the much lower protein loading in the HC sample in the right panel. (n = 3, mean ± SEM, p>0.05, One Way ANOVA, Dunnett). B: Confluent HUVECs were treated for 16 h with 10 or 30 µM of the indicated compounds or left untreated as control. After addition of CellTiter-BlueTM Reagent, cells were incubated for 4 h and fluorescence was measured at 560 nm (n = 3, mean ± SEM, * p<0.05, One Way ANOVA, Dunnett).
HUVECs were seeded in 96-well plates. After reaching confluency, the cells were treated for 16 h with the indicated compounds or left untreated as control. After addition of CellTiter-Blue^TM Reagent (Promega Corporation, Madison, WI, USA), cells were incubated for additional 4 h and fluorescence was measured at 560 nm in a plate-reading photometer (SpectraFluor Plus; Tecan, Crailsheim, Germany).
In general terms: Alamar Blue is a resazurin reagent that responds to reducing activity.

Data set [2] deals with HUVECs. The experiment in a line: Tube formation assay on Matrigel. The note with it: 10 µM, 16 h. Type of data set: cell-based, human. On the procedure:
Figure 6 LGR 1404, 1406 and 1407 inhibit tube formation at 10 µM. HUVECs were seeded onto a matrix of growth-factor reduced Matrigel^TM in the presence or absence of the respective concentration of the compounds. After 16 h of incubation, images were taken and tube characteristics were quantified. A: Number of tubes (n = 3, mean ± SEM, * p<0.05, One Way ANOVA, Dunnett). B: Number of branching points (n = 3, mean ± SEM, * p<0.05, One Way ANOVA, Dunnett). C: Tube total length (n = 3, mean ± SEM, * p<0.05, One Way ANOVA, Dunnett). D: Representative images of the tube formation assay and the software based tube recognition (structures identified as tubes are blue) in a control (Co, left panel) and after treatment with LGR 1406 (10 µM, right panel).
Pre-cooled BD Matrigel^TM Matrix Growth Factor Reduced (GFR) (BD Biosciences, Heidelberg, Germany) was filled into the lower compartment of μ-slide Angiogenesis wells (ibidi GmbH, Martinsried, Germany) on ice. For polymerization of the Matrigel^TM Matrix, the slides were incubated at 37°C for 30 min. 12,000 HUVECs/well were seeded onto the Matrigel^TM and stimulated for 16 h. The extent of tube formation was determined by light microscopy using the TILLvisON system. Quantitative image analysis of tube length, number of branching points and tube number was performed with a software tool from Wimasis GmbH, Munich.

The subject of data set [3] is chorioallantoic membrane (CAM). The experiment in a line: Chorioallantoic membrane (CAM) assay, VEGF-induced vessel formation. The note with it: 250 nmol compound with 2.5 ng VEGF per cellulose disc, 24 h. The data set is classed as in vivo, white leghorn. The protocol: Fertilized white leghorn eggs were incubated for 72 h at 37°C in humidified atmosphere. After transferring the growing embryo into Petri dishes, a second incubation period of 72 h followed. At day 6, cellulose discs with 2.5 ng VEGF/250 nmol compound were placed on the membrane. 2.5 ng VEGF/DMSO was used as control. Pictures were taken after 24 h of stimulation. Representative images out of at least three experiments are shown.
Fertilized white leghorn eggs were incubated for 72 h at 37°C in humidified atmosphere. After transferring the growing embryo into a Petri dish, a second incubation period of 72 h followed. At day 6, two cellulose discs, one with 2.5 ng VEGF (VEGF 165, human recombinant from PeproTech GmbH, Hamburg, Germany)/250 nmol compound and the other with 2.5 ng VEGF/DMSO as control were placed on one CAM. After 24 h of stimulation, the vascular structure in the stimulated areas of the CAM was visualized using a stereomicroscope and a CCD camera (Olympus, Munich, Germany) and pictures were taken. The cellulose disks were produced as follows: after preparing a cellulose solution (2.5% hydroxyethyl cellulose, 2% polyvinylpyrrolidone (PVP 17), 2% polyethylene glycol (PEG 400) in water), the mixture was autoclaved, resulting in a homogenized, clear solution. For each disk, 200 μl of the warm solution were filled into the preformed circles of the lid of a 96 well plate and allowed to polymerize under a laminar air flow for 48 h. Finally, the cellulose disks were removed using tweezers and stored in a sterile Petri dish until use.

Data set [4] relates to HUVECs. The experiment in a line: Quantification of lamellipodia and Rac1 immunocytochemistry in migrating cells. The data set is classed as cell-based, human. Conditions: 8 h migration; for reduction of formation of lamellipodia: 10 µM; for recruitment of Rac1 to lamellipodia (in words): immunofluorescence. On the procedure:
A: Confluent layers of HUVECs were scratched and the cells were allowed to migrate for 8 h in the presence or absence of the respective concentration of the compounds, until clear lamellipodia formation was visible in the control. The actin cytoskeleton was then stained with rhodamin-phalloidine and fluorescence images (10x magnification) of the scratches were taken. Left panel: For quantitative evaluation of lamellipodia formation, cells with prominent lamellipodia and ruffles were counted in relation to the number of cells at the scratch front (n = 3, mean ± SEM, * p<0.05, One Way ANOVA, Dunnett). Right panel: Representative images of the scratch front (f-actin, 40x magnification). B: Cells treated like in A were fixed and stained for f-actin (red), cortactin (green) and Rac1 (white). Representative images out of three experiments are shown.
Confluent layers of HUVECs were scratched and stimulated in 8-well μ-slides as described above. The cells were allowed to migrate for 8 h in the presence or absence of the respective concentration of the compounds, until clear lamellipodia formation was visible in the control. The actin cytoskeleton was then stained with rhodamine-phalloidin (Life Technologies, Darmstadt, Germany) and fluorescence images of the scratches were taken in 10x magnification with the Zeiss LSM 510 META. For quantitative evaluation of lamellipodia formation, cells with prominent lamellipodia and ruffles were counted with ImageJ (Cell Counter plug-in by Kurt De Vos) in relation to the total number of cells at the scratch front. The ratio was calculated as number of lamellipodia-positive cells per 100 cells at scratch front. In the same setting immunofluorescence staining was performed. Fixed cells were permeabilized for 2 min with 0.1% Triton X-100 in PBS. Cells were washed and unspecific binding was blocked with 0.2% BSA in PBS for 15 min. Thereafter, cells were incubated with primary antibody (cortactin: rabbit polyclonal, 1∶100, Cell Signaling, and Rac1: mouse monoclonal, 1∶100, Upstate) in 0.2% BSA/PBS over night at 4°C. After three washing steps with PBS, the specimen were incubated with the corresponding AlexaFluor® -labeled secondary antibodies for 30 min at room temperature. Finally, the slides were again washed three times with PBS (5 min), embedded in FluorSave^TM Reagent mounting medium and covered with 8 mm ×8 mm glass cover slips.

Take `CC[C@H](CO)Nc1nc(NCc2ccccc2)c2n[nH]c(C(C)C)c2n1` [LGR 1404, 7-Benzylamino-5(R)-[(1-hydroxymethyl)propylamino]-3-isopropyl-1(2)H-pyrazolo[4,3-d]pyrimidine]: the “cell viability in comparison to control” value in data set [1] is on record as “weak but significant decrease of viability”. Besides, in data set [2], the “reduction of total tube length” value worked out at 25%; the “tube and branching point numbers and total tube length (in words)” value was “significant reduction”. For the same molecule, the VEGF-induced vessel formation entry in data set [3] was “completely inhibit”. For the same molecule, in data set [4], the “reduction of formation of lamellipodia” value came out at 54% and the “recruitment of Rac1 to lamellipodia (in words)” value (“recruitment of Rac1” below) is “inhibit recruitment of Rac1 to lamellipodia”.

As for `CC(C)c1n[nH]c2c(NCc3ccccc3)nc(NC3CCCCC3N)nc12` (centres unmarked) [LGR 1406, 5-[(2-E/Z-aminocyclohexyl)amino]-7-benzylamino-3-isopropyl-1(2)H-pyrazolo[4,3-d]pyrimidine], the “cell viability in comparison to control” value in data set [1] is given as “weak but significant decrease of viability”. Also, in data set [2], the “reduction of number of branching points” value was found to be 56%; the “reduction of total tube length” value stood at 56%; the “reduction of tube number” value is 42%; the “tube and branching point numbers and total tube length (in words)” value is on record as “significant reduction”. The VEGF-induced vessel formation entry in data set [3] was “completely inhibit”. In addition, in data set [4], the “reduction of formation of lamellipodia” value stood at 67% and the “recruitment of Rac1” value is “inhibit recruitment of Rac1 to lamellipodia”.

Take `CC(C)c1n[nH]c2c(NCc3ccccc3)nc(NC3CCC(N)CC3)nc12` (centres unmarked) [LGR 1407, 5-[(4-E-aminocyclohexyl)amino]-7-benzylamino-3-isopropyl-1(2)H-pyrazolo[4,3-d]pyrimidine]: the “cell viability in comparison to control” value in data set [1] is reported as “weak but significant decrease of viability”. For the same molecule, in data set [2], the “reduction of number of branching points” value is on record as 35%; the “reduction of total tube length” value is given as “about 30%”; the “reduction of tube number” value is listed as “about 30%”; the “tube and branching point numbers and total tube length (in words)” value is “significant reduction”. For the same molecule, the “reduction of total tube length” value in data set [2] (listed as LGR1407) worked out at 30%. Also, in data set [3], the VEGF-induced vessel formation result is on record as “completely inhibit”. Also, in data set [4], the “reduction of formation of lamellipodia” value was found to be 67% and the “recruitment of Rac1” value was “inhibit recruitment of Rac1 to lamellipodia”.

The values are drawn from publication PMC3545992, “Trisubstituted Pyrazolopyrimidines as Novel Angiogenesis Inhibitors” (PLoS ONE, 2013).
